# Test results as given in a melting point compilation (Tetko et al.; mined from patent text by program, amines drawn as free bases though some values may be those of a salt).
row,Compound,melting point [°C]
1,COCC1CN(c2ccc(Br)nc2)C(=O)O1 (racemic),108 to 110
2,O=C(O)CCC(=O)c1ccc(Oc2ccc(NC(=O)c3ccc(Cl)c(Cl)c3)cc2F)cc1,205 to 208
3,Nc1cc(Oc2cc(Cl)cc(Cl)c2)nc(C(=O)O)c1Cl,196
4,COC(=O)CCc1ccc(OCc2cccc(-c3cccc(C(=O)O)c3)c2)cc1,180 to 185
5,Cc1cccc(-c2nc3ccc(O)cc3n2Cc2ccccc2C(F)(F)F)c1,233
6,CCC(=O)N[C@H]1CC[C@H](CCN2CCN(c3nccc4c3OCC4)CC2)CC1,196
7,CCOc1cc(C)ccc1C1CCN(CCCCNC(=O)c2ccc(C=Cc3ccc(C(F)(F)F)cc3)cc2)CC1,210
8,COc1ccc(CNc2c3c(nc4ccccc24)CCCC3O)cc1 (centres undefined),163 to 165
9,O=C(Nc1cccc2c1C1CCCCN1C2=O)Nc1ncccc1Br (centres undefined),220
10,O=P(O)(O)Cc1cccc(C(F)(F)F)c1,163 to 164
11,Cc1nn(C)c2nc3n(c(=O)c12)CCS3,229 to 230
12,COC1(c2cccc(O)c2)OOC12C1CC3CC(C1)CC2C3 (centres undefined),135
13,O=C1C=C(O)CC(CCc2ccc(O)cc2)(C2CCCCC2)O1 (centres undefined),52 to 58
14,CC(C(=O)O)c1ccc2nc(-c3ccccc3)oc2c1 (centres undefined),132
15,Cc1ccc(S(=O)(=O)OCC2Cc3cccc(-c4ccsc4)c3O2)cc1 (centres undefined),90 to 92
16,N#Cc1ccc(C(=O)Nc2ccc(-n3nc(C(F)(F)F)cc3C(F)(F)F)cc2)cc1,169 to 171
17,COc1cc(C=C(C=O)C(C=O)=Cc2ccc(OC(C)=O)c(OC)c2)ccc1OC(C)=O,149 to 151
18,CC(C)(C)Nc1nc(C#N)c(C#N)nc1Cl,169 to 173
19,CN(C)C=C(C#N)C(=O)NCc1ccccc1,160 to 161
20,C/C(=C\Cn1oc(=O)[nH]c1=O)c1ccc2oc(Cc3nc(-c4ccccc4)oc3C)cc2c1,81 to 83

row,Compound,melting point [°C]
1,Cc1cccc(-c2coc3c(O)c(O)ccc3c2=O)c1,268
2,CCCCc1oc2ccc(-c3nc(C)no3)cc2c1C(=O)c1ccc(OCCCBr)cc1,85 to 87
3,COC(=O)COc1ccc(C(C)=O)c(C)c1,49 to 50
4,Oc1cccc2c1c1cccc(Cl)c1n2Cc1ccc(F)cc1,142 to 145
5,CSc1nnc(-c2ccc3ncn(-c4cccc(OC(F)(F)F)c4)c3c2)o1,149 to 150
6,Cc1ccc(O)c2c1C(C)CC2=O (centres undefined),52 to 53
7,CC1(Cl)C(=S)Nc2ccc(Cl)cc21 (centres undefined),248 to 251
8,COCc1cc(OC)c(-c2ccc(C[C@H](NC(=O)c3c(F)cccc3Cl)C(=O)O)cc2)c(OC)c1,170 to 175
9,O=C(NCC1CC(=O)N(Cc2ccccc2)c2ccccc2N1C(=O)CN1C(=O)c2ccccc2C1=O)OCc1ccccc1 (centres undefined),219 to 221
10,NC1C(=O)N(CC2C3CC4CC(C3)CC2C4)c2ccccc2N(c2ccccc2)C1=O (centres undefined),209 to 210
11,CCOC(=O)c1c(N2CCN(C(=O)c3ccco3)CC2)c2cc(F)cnc2n(CC(=O)c2ccccc2)c1=O,134
12,COc1ccc(-c2cc3cc(OC)cc(C=C(Cl)Cl)c3o2)cc1,129 to 131
13,CCOC(=O)c1c(Cl)c2cccnc2[nH]c1=O,172
14,Nc1ccccc1OCc1nc(Cl)ccc1Cl,74 to 75
15,O=S(c1ccncc1)C1CCNCC1 (centres undefined),73 to 76
16,CS(=O)(=O)c1ccc(-c2cc(C(=O)c3cc(-c4ccc(S(C)(=O)=O)cc4)c(N4CCOCC4)s3)sc2N2CCOCC2)cc1,235 to 236
17,Nc1nc(NCC(c2ccccc2)c2ccccc2)c2ncn(C3OC(CO)C(O)C3O)c2n1 (centres undefined),134 to 137
18,N#Cc1c(-c2ccc(Cl)cc2)[nH]c([N+](=O)[O-])c1Br,180 to 185
19,CC(=O)Nc1cccc2c(-c3ccc(=O)n(C(C)C)n3)c(-c3ccccc3)nn12,92 to 96
